The text below walks through data of patent publication US8691865B2 (AbbVie Inc., priority 2008, dated 2014).

By IC50 is commonly meant the concentration needed to halve the response being measured.

The first assay deals with human Cav2.2 (Homo sapiens, UniProt Q00975). As to the kind of experiment: Assessment of calcium channel activity using FLIPR (Ca2+ influx in IMR32 cells).
human Cav2.2, sequence (Q00975 whole entry): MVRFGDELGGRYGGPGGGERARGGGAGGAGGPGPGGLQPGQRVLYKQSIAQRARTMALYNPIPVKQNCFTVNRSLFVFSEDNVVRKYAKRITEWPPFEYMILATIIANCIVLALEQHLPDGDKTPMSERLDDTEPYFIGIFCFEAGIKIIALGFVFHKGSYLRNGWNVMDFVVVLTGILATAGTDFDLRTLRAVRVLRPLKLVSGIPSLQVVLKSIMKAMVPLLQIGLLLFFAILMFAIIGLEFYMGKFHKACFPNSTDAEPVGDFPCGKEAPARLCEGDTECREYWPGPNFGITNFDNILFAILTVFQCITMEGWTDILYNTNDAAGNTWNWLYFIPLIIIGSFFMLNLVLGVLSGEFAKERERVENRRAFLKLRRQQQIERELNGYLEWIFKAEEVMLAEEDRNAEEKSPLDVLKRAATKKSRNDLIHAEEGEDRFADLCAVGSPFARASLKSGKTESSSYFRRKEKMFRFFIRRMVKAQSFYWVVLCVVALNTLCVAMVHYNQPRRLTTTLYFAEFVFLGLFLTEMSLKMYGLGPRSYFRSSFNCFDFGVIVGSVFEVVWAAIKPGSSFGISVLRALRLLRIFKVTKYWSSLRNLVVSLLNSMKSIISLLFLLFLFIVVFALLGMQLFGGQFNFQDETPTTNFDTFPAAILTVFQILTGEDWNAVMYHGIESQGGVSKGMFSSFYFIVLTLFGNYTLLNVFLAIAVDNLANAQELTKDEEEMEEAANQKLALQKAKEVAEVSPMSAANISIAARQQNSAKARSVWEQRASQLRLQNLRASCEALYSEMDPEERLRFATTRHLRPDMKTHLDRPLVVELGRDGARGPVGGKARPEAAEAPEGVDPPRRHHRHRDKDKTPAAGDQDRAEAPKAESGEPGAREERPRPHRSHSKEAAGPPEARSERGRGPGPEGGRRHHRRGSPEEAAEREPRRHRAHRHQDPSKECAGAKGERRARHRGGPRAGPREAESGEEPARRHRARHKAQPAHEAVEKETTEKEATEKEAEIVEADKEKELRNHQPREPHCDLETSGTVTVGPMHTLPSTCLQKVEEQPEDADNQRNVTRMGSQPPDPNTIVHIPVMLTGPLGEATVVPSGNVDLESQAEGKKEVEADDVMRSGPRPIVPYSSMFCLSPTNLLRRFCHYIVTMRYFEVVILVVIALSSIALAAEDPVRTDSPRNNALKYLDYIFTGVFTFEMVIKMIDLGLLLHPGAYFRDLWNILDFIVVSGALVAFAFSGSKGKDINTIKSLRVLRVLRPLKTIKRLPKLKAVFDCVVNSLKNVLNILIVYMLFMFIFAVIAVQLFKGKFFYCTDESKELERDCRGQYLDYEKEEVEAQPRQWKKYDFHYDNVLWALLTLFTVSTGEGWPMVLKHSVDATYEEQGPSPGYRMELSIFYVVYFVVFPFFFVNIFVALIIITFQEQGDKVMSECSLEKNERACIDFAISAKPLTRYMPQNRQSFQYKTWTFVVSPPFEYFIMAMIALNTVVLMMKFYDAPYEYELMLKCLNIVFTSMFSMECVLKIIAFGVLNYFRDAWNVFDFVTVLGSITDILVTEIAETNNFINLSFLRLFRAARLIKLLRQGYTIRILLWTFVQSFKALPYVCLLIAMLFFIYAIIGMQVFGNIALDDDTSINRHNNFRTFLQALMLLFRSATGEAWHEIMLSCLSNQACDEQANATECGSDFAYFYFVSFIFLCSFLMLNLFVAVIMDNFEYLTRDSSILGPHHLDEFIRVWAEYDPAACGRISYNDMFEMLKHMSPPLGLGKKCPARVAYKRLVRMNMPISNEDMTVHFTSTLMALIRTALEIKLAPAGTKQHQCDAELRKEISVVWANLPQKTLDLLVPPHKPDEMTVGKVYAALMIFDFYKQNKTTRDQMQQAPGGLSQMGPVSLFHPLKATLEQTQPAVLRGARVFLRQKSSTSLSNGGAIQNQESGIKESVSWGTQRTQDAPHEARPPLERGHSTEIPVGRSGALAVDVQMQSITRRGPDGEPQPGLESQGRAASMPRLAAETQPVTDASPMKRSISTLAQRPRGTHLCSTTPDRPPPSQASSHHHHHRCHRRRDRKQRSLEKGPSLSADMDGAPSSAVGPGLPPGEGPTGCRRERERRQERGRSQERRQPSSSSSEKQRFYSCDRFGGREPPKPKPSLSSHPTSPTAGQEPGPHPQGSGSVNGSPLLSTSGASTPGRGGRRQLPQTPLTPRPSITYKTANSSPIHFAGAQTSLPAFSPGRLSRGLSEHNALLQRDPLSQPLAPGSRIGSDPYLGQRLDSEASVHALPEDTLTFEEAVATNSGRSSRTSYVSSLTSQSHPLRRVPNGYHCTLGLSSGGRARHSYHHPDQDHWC
human Cav2.2, sequence (P54289 25-956 partner limits assumed): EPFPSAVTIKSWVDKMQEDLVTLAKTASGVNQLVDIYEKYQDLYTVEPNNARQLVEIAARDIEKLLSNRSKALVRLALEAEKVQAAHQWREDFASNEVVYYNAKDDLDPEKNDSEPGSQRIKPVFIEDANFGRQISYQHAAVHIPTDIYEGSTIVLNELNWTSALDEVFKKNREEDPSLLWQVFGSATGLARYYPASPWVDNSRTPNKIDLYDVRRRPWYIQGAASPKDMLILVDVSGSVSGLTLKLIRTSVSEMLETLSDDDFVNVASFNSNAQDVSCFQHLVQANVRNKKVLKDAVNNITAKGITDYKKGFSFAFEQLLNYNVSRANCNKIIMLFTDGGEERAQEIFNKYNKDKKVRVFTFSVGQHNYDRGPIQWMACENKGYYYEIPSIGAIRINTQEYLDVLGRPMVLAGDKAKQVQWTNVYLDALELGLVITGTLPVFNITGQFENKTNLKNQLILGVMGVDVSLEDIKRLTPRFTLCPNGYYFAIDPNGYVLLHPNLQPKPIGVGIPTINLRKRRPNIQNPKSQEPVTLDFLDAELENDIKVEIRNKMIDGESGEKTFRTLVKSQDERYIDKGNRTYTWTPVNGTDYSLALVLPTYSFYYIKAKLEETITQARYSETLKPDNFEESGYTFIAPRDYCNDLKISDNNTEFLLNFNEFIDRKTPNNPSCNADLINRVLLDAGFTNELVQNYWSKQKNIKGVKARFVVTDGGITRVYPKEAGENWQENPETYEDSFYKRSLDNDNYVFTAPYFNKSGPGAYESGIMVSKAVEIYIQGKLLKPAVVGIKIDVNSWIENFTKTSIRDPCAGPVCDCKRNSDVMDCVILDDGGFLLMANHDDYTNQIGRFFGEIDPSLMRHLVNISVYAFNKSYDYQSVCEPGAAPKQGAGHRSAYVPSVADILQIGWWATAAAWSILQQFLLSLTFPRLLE
human Cav2.2, sequence (P54289 957-1103 partner limits assumed): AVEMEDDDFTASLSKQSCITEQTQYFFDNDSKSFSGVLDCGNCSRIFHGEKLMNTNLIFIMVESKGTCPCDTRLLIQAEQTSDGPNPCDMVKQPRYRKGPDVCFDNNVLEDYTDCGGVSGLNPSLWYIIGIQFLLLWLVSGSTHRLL
human Cav2.2, sequence (P54284 whole entry partner): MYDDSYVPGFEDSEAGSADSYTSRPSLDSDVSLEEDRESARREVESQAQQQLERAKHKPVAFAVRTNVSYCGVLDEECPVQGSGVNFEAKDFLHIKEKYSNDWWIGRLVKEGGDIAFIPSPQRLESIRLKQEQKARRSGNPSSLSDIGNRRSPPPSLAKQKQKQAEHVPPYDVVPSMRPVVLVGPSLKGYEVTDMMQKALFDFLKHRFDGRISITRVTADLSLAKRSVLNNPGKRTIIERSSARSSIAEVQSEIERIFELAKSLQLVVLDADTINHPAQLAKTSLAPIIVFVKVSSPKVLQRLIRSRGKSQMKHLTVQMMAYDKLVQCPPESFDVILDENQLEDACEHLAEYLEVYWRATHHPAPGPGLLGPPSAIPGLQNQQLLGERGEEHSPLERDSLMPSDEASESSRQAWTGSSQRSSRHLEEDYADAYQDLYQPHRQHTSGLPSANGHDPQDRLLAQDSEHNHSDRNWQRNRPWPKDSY
Details: not given
Format: cell-based. Summed up:
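IC50 values derive from nonlinear sigmoidal fitting of percent inhibition, relative to inhibitor-free activity, of Ca2+ influx read by FLIPR. Cells were IMR32 human neuroblastoma, plated at 1−1.2×10^5 per well and grown 48 h at 37 °C.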
Regarding `CN[C@@H](CC(C)C)C(=O)N[C@H]1CC[C@@H]2CN(c3cccnc3C(F)(F)F)C[C@@H]21` [Example 767, N^2-methyl-N-{(3aR,4S,6aS)-2-[2-(trifluoromethyl)pyridin-3-yl]octahydrocyclopenta[c]pyrrol-4-yl}-L-leucinamide], the IC50 came out at 6.93 µM.

As for `CN[C@@H](CC(C)C)C(=O)N[C@H]1CC[C@@H]2CN(c3nnc(C(F)(F)F)s3)C[C@@H]21` [Example 734, N^2-methyl-N-{(3aR,4S,6aS)-2-[5-(trifluoromethyl)-1,3,4-thiadiazol-2-yl]octahydrocyclopenta[c]pyrrol-4-yl}-L-leucinamide], the half-maximal inhibitory concentration (IC50) was 26.4 µM.

In the case of `FC(F)(F)c1cccc(N2C[C@H]3CC[C@H](NCc4c[nH]cn4)[C@H]3C2)n1` [Example 677, (3aR,4S,6aS)-N-(1H-imidazol-4-ylmethyl)-2-[6-(trifluoromethyl)pyridin-2-yl]octahydrocyclopenta[c]pyrrol-4-amine], the 50% inhibitory concentration (IC50) worked out at 3.35 µM.

With `O=C(N[C@@H]1CC[C@H]2CN(Cc3ccccc3)C[C@H]21)[C@@H]1CCCCN1` [Example 350, (2S)-N-[(3aS,4R,6aR)-2-benzyloctahydrocyclopenta[c]pyrrol-4-yl]piperidine-2-carboxamide], the IC50 is above 30 µM.

For the compound `FC(F)(F)c1cccc(N2C[C@H]3CC[C@H](NCc4ncc[nH]4)[C@H]3C2)n1` [Example 675, (3aR,4S,6aS)-N-(1H-imidazol-2-ylmethyl)-2-[6-(trifluoromethyl)pyridin-2-yl]octahydrocyclopenta[c]pyrrol-4-amine], the 50% inhibitory concentration (IC50) was 2.22 µM.

Regarding `O=C(N[C@H]1CC[C@@H]2CN(c3cccc(C(F)(F)F)n3)C[C@@H]21)[C@H]1CC[C@@H](O)CC1` [Example 584, cis-4-hydroxy-N-{(3aR,4S,6aS)-2-[6-(trifluoromethyl)pyridin-2-yl]octahydrocyclopenta[c]pyrrol-4-yl}cyclohexanecarboxamide], the half-inhibitory concentration (IC50) came out at 2.06 µM.

For the compound `O=C(Nc1ccc(Cl)cc1)N[C@H]1CC[C@@H]2CN(c3cccc(C(F)(F)F)n3)C[C@@H]21` [Example 713, 1-(4-chlorophenyl)-3-{(3aR,4S,6aS)-2-[6-(trifluoromethyl)pyridin-2-yl]octahydrocyclopenta[c]pyrrol-4-yl}urea], the IC50 amounted to 2.99 µM.

On to `N[C@H]1CC[C@@H]2CN(c3ccc(C(F)(F)F)cc3)C[C@@H]21` [Example 607, (3aR,4S,6aS)-2-[4-(trifluoromethyl)phenyl]octahydrocyclopenta[c]pyrrol-4-amine], for which the half-inhibitory concentration (IC50) was determined as 6.4 µM.

The assay is the same for the next values; noted with them: read-out: IC50 (μM) or percent inhibition (* indicates 3 minute incubation, otherwise 60 minute); IC50; 60 minute pre-incubation with compound; IMR32 cells, 80 mM KCl depolarization.
`Cc1cccc(CN2C[C@H]3CC[C@H](NC(=O)C(c4ccccc4)C(C)C)[C@H]3C2)c1` (stereo partly drawn) [Example 91, 3-methyl-N-[(3aR,4S,6aS)-2-(3-methylbenzyl)octahydrocyclopenta[c]pyrrol-4-yl]-2-phenylbutanamide]: the IC50 came out at 1.78 µM.

With `CN[C@@H](CC(C)C)C(=O)N[C@H]1CC[C@@H]2CN(Cc3cccc(C(F)(F)F)c3)C[C@@H]21` [Example 379, N^2-methyl-N^1-{(3aR,4S,6aS)-2-[3-(trifluoromethyl)benzyl]octahydrocyclopenta[c]pyrrol-4-yl}-L-leucinamide], the IC50 is 8.6 µM.

Turning to `CN[C@@H](CC(C)C)C(=O)N[C@@H]1CC[C@H]2CN(Cc3ccc(F)cc3)C[C@H]21` [Example 450, N^1-[(3aS,4R,6aR)-2-(4-fluorobenzyl)octahydrocyclopenta[c]pyrrol-4-yl]-N^2-methyl-L-leucinamide], the IC50 stood at 9.26 µM.

For the compound `CCC[C@H](NCC(C)(C)C)C(=O)N[C@@H]1CC[C@H]2CN(Cc3ccccc3)C[C@H]21` [Example 246, N^1-[(3aS,4R,6aR)-2-benzyloctahydrocyclopenta[c]pyrrol-4-yl]-N^2-neopentyl-L-norvalinamide], the 50% inhibitory concentration (IC50) was 8.38 µM.

`CCC[C@@H](C(=O)N[C@@H]1CC[C@@H]2CN(S(=O)(=O)c3ccc(C(F)(F)F)cc3)C[C@@H]21)N(C)C(=O)OC(C)(C)C` [Example 328, tert-butyl methyl((S)-1-oxo-1-((3aR,4R,6aS)-2-(4-(trifluoromethyl)phenylsulfonyl)octahydrocyclopenta[c]pyrrol-4-ylamino)pentan-2-yl)carbamate]: the concentration for half-maximal inhibition (IC50) came to 1.39 µM.
